We go through 25 molecules from patent EP3417074B1, “ANALYTICAL METHODS AND ARRAYS FOR USE IN THE SAME” (SenzaGen AB, priority 2016, dated 2017).

Structures are written as SMILES. Several values for one entry are separate records, joined by “and”; a condition that tells them apart may be missing. Equal entries are not always repeated. Entries after “also recorded” stand apart in the source; their conditions may differ. Where two headings read alike, the source gives them in different places.

One data set relates to human skin. As to conditions: cited from earlier work.
The subject of data set [1] is MUTZ-3 cells.
For data set [2], the system named is MUTZ-3 cells. As to conditions: for SVM DV: human.
Description: (§1) The SVM model had been developed for binary classifications (sensitizer versus non-sensitizer).
Data set [3] relates to MUTZ-3 cells. This is another data set of the same source.
For data set [4] the following is noted: cited from earlier work; for binary class: Table 4; for binary class (HP*): Table 1, based on [41] where available, HP 1-4=S, 5-6=NS, otherwise according to CLP.
Data set [5] relates to MUTZ-3 cells. As to the kind of experiment: GARD random forest model for prediction of CLP categories (52 transcripts, Example A). To be noted: for predicted CLP: Suppl. Table 1, separate replicates in the test set; for GARD predicted CLP: Table 6, independent test set, majority voting across replicates; for CLP category predicted by the random forest model: test set, majority votes.

The test system of data set [6] is MUTZ-3 cells. Description: GARD binary classification (SVM on GARD prediction signature, 200 transcripts). To be noted: Table 1; sensitizer if median calibrated SVM DV of replicates > 0.
Description: as §1
Data set [7] concerns MUTZ-3 cells. As to the kind of experiment: Cytotoxicity / viability by flow cytometry (propidium iodide). As to conditions: Table 1, 24 hours exposure. Background: In flow cytometry, cells or beads pass a laser one at a time.

For `CC=Cc1ccc(OC)cc1` [anethole], in the data set on human skin, the HP is 5 and the “Human potency [41]” value is listed as 5. Besides, in the data set with MUTZ-3 cells [1] (human, 24 h), the “GARD predicted CLP” value was 1B and the “predicted CLP” value is 1B.

On to `Nc1ccccc1` [aniline], for which the HP in the data set on human skin is 4. Besides, in the data set on MUTZ-3 cells [2], the “binary classification according to the established GARD model” value is reported as “misclassified”. Moreover, in the data set with MUTZ-3 cells [3], the cytotox entry is given as “no”.

Consider `O=C(O)c1ccccc1` [benzoic acid], for which the binary class entry in data set [4] was “non-sens”. In addition, in the data set on MUTZ-3 cells [5], the “predicted CLP” value is on record as “no cat” and the “GARD predicted CLP” value is “no cat”. In the data set on MUTZ-3 cells [3], the cytotox result is recorded as “no”.

For the molecule `O=C(OCc1ccccc1)c1ccccc1` [benzyl benzoate], the GARD binary prediction entry in the data set on MUTZ-3 cells [6] is reported as “S”. Further, in the data set on MUTZ-3 cells [5], the “predicted CLP” value is 1B and the “GARD predicted CLP” value is 1B. Moreover, the cytotox result in the data set with MUTZ-3 cells [7] is recorded as “yes”.

On to `CC(C)(c1ccc(OCC2CO2)cc1)c1ccc(OCC2CO2)cc1` (centres unmarked) [bisphenol A-diglycidyl ether], for which, in the data set with MUTZ-3 cells [6], the GARD binary prediction result is reported as “S”. In the data set with MUTZ-3 cells [5], the “predicted CLP” value is recorded as 1A and the “GARD predicted CLP” value is listed as 1A. Moreover, in the data set with human skin, the HP is reported as 3 and the “Human potency [41]” value is on record as 3. Moreover, in the data set with MUTZ-3 cells [3], the cytotox result was “yes”.

Regarding `CCCCOCC1CO1` (centres unmarked) [butyl glycidyl ether], in the data set with human skin, the HP is listed as 3, the “Human potency [41]” value was 3 and the human potency category is recorded as 3. Further, the “binary classification according to the established GARD model” value in the data set on MUTZ-3 cells [2] was “misclassified”. Further, the cytotox result with MUTZ-3 cells [3] is on record as “yes”. Besides, in the data set on MUTZ-3 cells [1] (human, 24 h), the “CLP category predicted by the random forest model” value (“CLP category predicted” below) is 1A and the “GARD predicted CLP” value is reported as 1A.

Regarding `CN(C)CCCN1c2ccccc2Sc2ccc(Cl)cc21` [chlorpromazine], the GARD binary prediction result in the data set on MUTZ-3 cells [6] is “S”. In data set [4], the “binary class (HP*)” value is on record as “S” and the binary class entry is listed as “sens”. Besides, the cytotox result with MUTZ-3 cells [7] is “yes”. Also, the HP in the data set with human skin (Table 4) is on record as 3.

With `CC(C)=CCCC(C)=CC=O` [citral], the GARD binary prediction entry in the data set with MUTZ-3 cells [6] is recorded as “S”. Besides, in data set [4], the “binary class (HP*)” value was “S” and the binary class result is reported as “sens”. Also, in the data set with MUTZ-3 cells [7], the cytotox result is given as “yes”. Besides, in the data set with human skin, the HP is given as 3.

In the case of `CC(C)=CCCC(C)CCO` (centres unmarked) [citronellol], in the data set with MUTZ-3 cells [6], the GARD binary prediction entry is “S”. Also, the binary class entry in data set [4] was “sens”. Besides, the cytotox result with MUTZ-3 cells [7] is on record as “no”. Further, the HP in the data set with human skin (Table 4) is recorded as 5.

`Clc1nc(Cl)nc(Cl)n1` [cyanuric chloride]: in data set [4], the “binary class (HP*)” value is given as “S” and the binary class entry is on record as “sens”. Besides, in the data set with MUTZ-3 cells [5], the “predicted CLP” value was 1B and no cat (2×); the “GARD predicted CLP” value is on record as “no cat”; the “CLP category predicted” value is on record as “no cat; also recorded: no category”. The cytotox entry in the data set with MUTZ-3 cells [7] is listed as “yes”.

Consider `CCOc1cc(C=O)ccc1O` [ethyl vanillin], for which, in the data set with MUTZ-3 cells [1], the “GARD predicted CLP” value is listed as “no cat” and the “predicted CLP” value is recorded as “no cat”. The “predicted CLP” value with MUTZ-3 cells [1] (human, 24 h) was 1B.

`C=CCc1ccc(O)c(OC)c1` [eugenol]: in the data set with human skin, the HP was 3 and the Human potency is 3. Besides, the “SVM DV” value in the data set on MUTZ-3 cells [2] (24 h) is 1,02.

Regarding `C=O` [formaldehyde], in the data set on human skin, the HP is on record as 2 and the Human potency is recorded as 2. In the data set with MUTZ-3 cells [2], the “SVM DV” value is 2,32.

As for `O=CCCCC=O` [glutaraldehyde], the GARD binary prediction result in the data set with MUTZ-3 cells [6] is “S”. In data set [4], the “binary class (HP*)” value is recorded as “S” and the binary class result was “sens”. Moreover, in the data set with MUTZ-3 cells [5], the “predicted CLP” value is recorded as 1A and the “GARD predicted CLP” value is 1A. Moreover, the cytotox entry in the data set on MUTZ-3 cells [7] is given as “yes”. Besides, the HP with human skin (Table 4) is listed as 2. For the same molecule, in the data set with human skin (Table 6, test set), the “Human potency [41]” value was 2.

Take `CCCCCCOC(=O)c1ccccc1O` [hexyl salicylate]: the GARD binary prediction entry in the data set with MUTZ-3 cells [6] is listed as “S”. Besides, in data set [4], the “binary class (HP*)” value is “S” and the binary class entry is reported as “sens”. Further, the cytotox entry in the data set on MUTZ-3 cells [7] is on record as “yes”. Besides, the HP in the data set on human skin is listed as 4.

Regarding `NC[C@H]1O[C@H](O[C@H]2[C@H](O)[C@@H](O[C@H]3O[C@H](CO)[C@@H](O)[C@H](N)[C@H]3O)[C@H](N)C[C@@H]2N)[C@H](O)[C@@H](O)[C@@H]1O` [kanamycin A], the binary class entry in data set [4] is “non-sens”. Also, the cytotox result in the data set with MUTZ-3 cells [3] is “no”.

Regarding `CC(C=O)Cc1ccc(C(C)(C)C)cc1` (centres unmarked) [lilial], in data set [4], the “binary class (HP*)” value is “S” and the binary class result is reported as “sens”. Besides, the HP in the data set with human skin is 4. In addition, the GARD binary prediction entry in the data set with MUTZ-3 cells [2] is “S”. Further, the cytotox result with MUTZ-3 cells [3] is “yes”.

`C=CC(C)(O)CCC=C(C)C` (centres unmarked) [linalool]: in data set [4], the “binary class (HP*)” value is “S” and the binary class result is reported as “sens”. In the data set on MUTZ-3 cells [5], the “predicted CLP” value was “no cat and 1B (2×)”; the “GARD predicted CLP” value is listed as 1B. Moreover, the cytotox entry with MUTZ-3 cells [7] is “no”. Also, in the data set on human skin (Table 4), the HP is 4. Besides, the “Human potency [41]” value with human skin (Table 6, test set) is listed as 4.

For the molecule `CC(C)(O)CCCC1=CCC(C=O)CC1` (centres unmarked) [lyral], the GARD binary prediction result with MUTZ-3 cells [6] is given as “S”. In data set [4], the “binary class (HP*)” value is reported as “S” and the binary class result is given as “sens”. For the same molecule, in the data set on MUTZ-3 cells [5], the “predicted CLP” value is 1A (2×) and 1B; the “GARD predicted CLP” value was 1A; the “CLP category predicted” value is listed as 1A. Further, in the data set with MUTZ-3 cells [7], the cytotox result is “yes”. Besides, in the data set with human skin (Basketter et al. [41]), the human potency category is listed as 2. Moreover, the HP with human skin (Table 4) was 2. In addition, in the data set on human skin (Table 6, test set), the “Human potency [41]” value was 2.

With `CCCCCC#CC(=O)OC` [methyl heptine carbonate], the GARD binary prediction entry in the data set on MUTZ-3 cells [6] was “S”. In data set [4], the “binary class (HP*)” value is on record as “S” and the binary class result is “sens”. Moreover, the cytotox entry with MUTZ-3 cells [7] is recorded as “yes”. Moreover, the HP with human skin (Table 4) is 2.

As for `O=C1C=CC(=O)C=C1` [p-benzoquinone], in the data set with MUTZ-3 cells [5], the “predicted CLP” value is given as 1A and the “GARD predicted CLP” value is reported as 1A. Further, in the data set with MUTZ-3 cells [7], the cytotox result is on record as “yes”. For the same molecule, the GARD binary prediction entry in the data set on MUTZ-3 cells [2] is “S”.

Regarding `Oc1ccccc1` [phenol], in the data set with human skin, the HP is recorded as 6 and the Human potency is recorded as 6. The “SVM DV” value in the data set with MUTZ-3 cells [2] is -1,08.

With `CCCOC(=O)c1cc(O)c(O)c(O)c1` [propyl gallate], the GARD binary prediction result with MUTZ-3 cells [6] is recorded as “S”. Further, in data set [4], the “binary class (HP*)” value is given as “S” and the binary class result is listed as “sens”. Also, in the data set on MUTZ-3 cells [5], the “predicted CLP” value was 1A and the “GARD predicted CLP” value was 1A. The cytotox entry in the data set on MUTZ-3 cells [7] is on record as “yes”. For the same molecule, the HP in the data set on human skin (Table 4) is given as 2. Further, the “Human potency [41]” value in the data set on human skin (Table 6, test set) was 2.

Regarding `c1ccncc1` [pyridine], the HP with human skin was 5. In addition, the cytotox result with MUTZ-3 cells [3] was “no”.

Turning to `CCCCCCCCCCCCOS(=O)(=O)[O-].[Na+]` [sodium dodecyl sulfate], in the data set on human skin, the HP is recorded as 6 and the Human potency is given as 6. Also, the “SVM DV” value in the data set on MUTZ-3 cells [2] is -1,52.
